From PubChem BioAssay AID1645865 (Buhrlage Lab, Dana-Farber Cancer Institute and Novartis …, 2021)
Calls of active or inactive are those of the source.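 The calls were made as follows: active = maximal inhibition of the USP30 enzyme reaching 30% or more across the dose series; inactive = the rest.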

Each compound was assayed against Ubiquitin carboxyl-terminal hydrolase 30 (Homo sapiens) (UniProt Q70CQ3) (assay: inhibitors of ubiquitin-specific protease 30 deubiquitylating enzyme, concentration dependence, in vitro biochemical, validation of primary hits (AID 1645865)). Settings: purified USP30, Ub-rhodamine cleavage, fluorescence, 2 h.
Sequence of Ubiquitin carboxyl-terminal hydrolase 30 (Homo sapiens) (Q70CQ3 whole entry, looked up): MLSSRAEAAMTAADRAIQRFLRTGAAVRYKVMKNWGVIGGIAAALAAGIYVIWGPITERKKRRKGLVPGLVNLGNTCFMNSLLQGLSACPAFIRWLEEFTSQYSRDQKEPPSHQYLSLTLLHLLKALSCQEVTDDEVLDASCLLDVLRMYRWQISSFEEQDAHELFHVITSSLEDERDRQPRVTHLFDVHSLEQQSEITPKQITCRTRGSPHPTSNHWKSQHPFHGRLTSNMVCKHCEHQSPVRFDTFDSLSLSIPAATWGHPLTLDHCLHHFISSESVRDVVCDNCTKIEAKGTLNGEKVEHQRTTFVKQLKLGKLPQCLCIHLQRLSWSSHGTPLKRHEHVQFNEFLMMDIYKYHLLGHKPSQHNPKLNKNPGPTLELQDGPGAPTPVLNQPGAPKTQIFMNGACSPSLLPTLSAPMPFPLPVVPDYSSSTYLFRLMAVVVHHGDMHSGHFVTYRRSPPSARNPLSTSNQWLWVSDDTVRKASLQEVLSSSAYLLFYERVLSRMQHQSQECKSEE

IC50 | SMILES
39.2 µM | COc1cccc(N2CCN(c3ccc4nnc(CCC(=O)N5CCc6ccccc6C5)n4n3)CC2)c1
> 50 µM (inactive) | CC1=C2C(=NCCN1)C(=O)N(c1ccccc1)C2c1cccnc1 (configuration not stated)
40.3 µM | O=C1N[C@@H](Cc2ccccc2)C(=O)N2[C@H]3Nc4ccccc4[C@@]3([C@]34C[C@H]5C(=O)N[C@@H](Cc6ccccc6)C(=O)N5[C@H]3Nc3ccccc34)C[C@@H]12
> 50 µM (inactive) | COc1ccc(C(C)NC(=O)c2cnc(-c3ccccc3)nc2-c2ccncc2)cc1 (configuration not stated)
> 50 µM (inactive) | O=C1C/C(=C\c2cccc(Cl)c2)Cc2ccccc21
36.2 µM | CC1=CC(=O)C(C2=C(O)C(=O)C(C)=CC2=O)=C(O)C1=O
> 50 µM (inactive) | Cc1ccc(C2c3cccn3CCN2C(=O)Nc2ccccc2)cc1 (configuration not stated)
23.5 µM | COc1ccc(OC)c(CCNC(=O)CCC2=NS(=O)(=O)c3ccc(C(F)(F)F)cc3N2)c1
0.152 µM | COc1cccc(C(=O)Oc2ccc3c(=O)c(-c4ccc(OC)c(OC)c4)coc3c2)c1
> 50 µM (inactive) | COc1ccc(/C=C/c2ccnc3nc(-n4cccc4)nn23)cc1
25.7 µM | COCCCn1c(SCC(=O)Nc2ccccc2C(=O)OC)nc2ccccc2c1=O
> 50 µM (inactive) | COc1cccc2cccc(O)c12
> 50 µM (inactive) | NC(=O)Cn1c(=O)n(Cc2ccc(C(=O)NC3CCCC3)cc2)c(=O)c2ccccc21
35.4 µM | COc1cccc(-c2cc(=O)[nH]c(Nc3nc(C)c4ccccc4n3)n2)c1
> 50 µM (inactive) | Cn1c(=O)c2c(nc3n(-c4ccccc4F)c(-c4ccccc4)cn23)n(C)c1=O
> 50 µM (inactive) | Cn1cc(CCNC(=O)c2cc3ccccc3[nH]2)c2cccnc21
> 50 µM (inactive) | COc1ccc(C(=O)Nc2cc(-c3ccccn3)no2)cn1
27.6 µM | Cc1ccc(Cn2cc(-c3noc(-c4ccncc4)n3)nn2)cc1
> 50 µM (inactive) | COCC(=O)Nc1cc(F)c2nc(N3CCOCC3)ccc2c1
24.6 µM | COc1ccc(CCNC(=O)CCCCn2c(=O)c3ccccc3n(Cc3cccc(Cl)c3)c2=O)cc1OC
> 50 µM (inactive) | C[C@H](NC(=O)Cc1ccccc1F)c1nc2cc(-c3ccccc3F)ncn2n1
1.92 µM | Fc1ccc(-c2noc(-c3nnc(NCc4cccnc4)c4ccccc34)n2)cc1
1.69 µM | O=C(CCCn1c(=O)c2ccccc2n(CC(=O)NCc2ccccc2Cl)c1=O)NCc1ccc2c(c1)OCO2
> 50 µM (inactive) | CCn1c(CNc2ccc(Cl)cc2)nnc1SCC(=O)Nc1ccccc1

IC50 | SMILES
> 50 µM (inactive) | COC1C(O)=C2C(=O)O/C(C)=C/C=C/C=C/C=C/CC(c3ccccc3)NC(=O)/C=C/C=C/C=C\C=C\C2(C)C1O (configuration not stated)
31.1 µM | Cc1nc(N2CCCC2)ncc1C(=O)Nc1ccc(F)c(F)c1
28.3 µM | COc1ccccc1OCc1ccc(C(=O)Nc2ccc(F)cc2C)cc1
> 50 µM (inactive) | CC(C)N1CC2CN(C(=O)c3ccccc3)CCN2Cc2ccccc21 (configuration not stated)
> 50 µM (inactive) | CC1(C)CC2CC(C)(CN2Cc2c(O)ccc3ccccc23)C1 (configuration not stated)
> 50 µM (inactive) | N#Cc1ccc(NC(=O)Nc2cccn(Cc3ccccc3Br)c2=O)cc1
26.3 µM | Cc1c(CC(=O)N2CCN(c3ncccn3)CC2)c(=O)oc2cc(O)ccc12
25.6 µM | Cc1cccc(NC(=O)CSc2nnc(-c3n[nH]c4c3CCC4)n2N)c1
22.1 µM | Cc1cccc(NC(=O)CN2C(=O)CC(c3ccccc3)S(=O)(=O)c3ccccc32)c1C (configuration not stated)
> 50 µM (inactive) | Cc1cc(/C=C2/C(=N)N3C(c4ccccc4)=CSC3=NC2=O)c(C)n1-c1ccc(F)cc1
28.4 µM | CCc1ccc(NC(=O)Cc2nnc(-c3ccc4ncccc4c3)o2)cc1
0.939 µM | COc1cc2c(cc1OC)-c1cc(Nc3ccc(Br)cc3)nc(=O)n1CC2
> 50 µM (inactive) | COc1ccc(C)cc1NC(=O)C(NS(=O)(=O)c1ccc2c(c1)CCN2C(C)=O)C(C)C (configuration not stated)
> 50 µM (inactive) | CC(C)Cc1nc2sc3c(NCCN4CCOCC4)ncnc3c2c2c1CCC2
> 50 µM (inactive) | COc1ccc(CCNC(=O)c2c(N)n(-c3cccc(Cl)c3)c3nc4ccccc4nc23)cc1
2.06 µM | COc1cc(C(=O)NC(Cc2ccccc2)c2nc3ccccc3[nH]2)cc(OC)c1OC (configuration not stated)
29 µM | CCc1noc(-c2ccc(OCC(=O)Nc3ccc(C)cc3C)cc2)n1
16.7 µM | O=c1c2cnc(N3CCOCC3)nc2ccn1CCc1ccccc1
27.3 µM | COc1ccc(CNC(=O)c2ccccc2N2C(=O)N3CCc4c([nH]c5ccccc45)[C@@]3(C)C2=O)cc1
> 5 µM (inactive) | COc1ccc(-c2nc(Cn3nnc(C(=O)Nc4ccc(C)cc4C)c3N)c(C)o2)cc1
3.47 µM | CC(=O)N1CCc2cc(S(=O)(=O)NC(Cc3ccccc3)C(=O)Nc3cccc(Cl)c3C)ccc21 (configuration not stated)
> 50 µM (inactive) | COc1ccc2c(c1)c(N1CCCC1=O)c(C(=O)NCc1cccc(OC)c1OC)n2C
> 50 µM (inactive) | COc1ccc(NC(=O)c2nnn(-c3cccc(C)c3)c2C)cc1
> 50 µM (inactive) | CCOc1ccc(CCNC(=O)c2cccc3c2C(=O)N(CCOC)C3)cc1OCC

IC50 | SMILES
2.13 µM | O=C(Nc1cccc(C(F)(F)F)c1)c1cc2c(s1)-c1ccccc1OC2
2.32 µM | CSc1ccccc1NC(=O)c1ccc(-n2cccn2)nn1
26.5 µM | O=C(CSc1nnc(CNC(=O)c2ccccc2F)o1)Nc1ccc(OC(F)(F)F)cc1
5.34 µM | COc1ccc(NC(=O)c2nnc(C(=O)NCCN3CCCCCC3)s2)cc1
> 50 µM (inactive) | CC1Oc2ccccc2C(=O)N(Cc2ccc([N+](=O)[O-])cc2)C1=O (configuration not stated)
> 50 µM (inactive) | CC(c1ccccc1)c1nc(-c2ccc(=O)[nH]c2)no1 (configuration not stated)
2.4 µM | Cc1cccc(-n2ccnc(SCC(=O)Nc3ccc(Cl)cc3F)c2=O)c1
40.9 µM | O=C(NCCn1ccc2ccccc21)c1cc2ccccc2oc1=O
> 50 µM (inactive) | N#Cc1ccc(Cn2nnc(-c3cccc(Cl)c3)n2)cc1
21 µM | CC1=C(c2ccc(F)cc2)S(=O)(=O)NC1=NCC(=O)Nc1ccc(F)cc1
> 50 µM (inactive) | O=C(NCc1ccc(CN2CCCC2)cc1)c1cc2ccccc2[nH]c1=O
> 50 µM (inactive) | O=C(NCc1ccc2c(c1)OCO2)c1nc(-c2ccccc2)n(-c2ccccc2)n1
> 50 µM (inactive) | O=C(Nc1nnc2n1CCCS2)c1cc2ccccc2o1
> 50 µM (inactive) | O=C(NCCc1ccccc1)c1nnn(Cc2cccc(Cl)c2)c1-n1cccc1
> 50 µM (inactive) | COc1ccc(C)cc1NC(=O)COc1ccc2c(c1)OCO2
1.98 µM | Cc1cc(C)c(NC(=O)Cn2c(=O)n(CCC(=O)NCc3ccc4c(c3)OCO4)c(=O)c3sccc32)c(C)c1
> 50 µM (inactive) | O=C(OCc1cccc(Cl)c1)c1ccc2ccccc2n1
2.85 µM | Cc1cccc(C(=O)OCC(=O)Nc2ccc3[nH]c(=O)[nH]c3c2)c1C
27.7 µM | Cc1nn(-c2ccc(F)cc2)cc1-c1noc(C(=O)NCc2ccccn2)n1
39.7 µM | CCCc1nc2c(sc3nc4c(cc32)COC(C)(C)C4)c(=O)n1CC(=O)Nc1ccccc1C
4.38 µM | COC(=O)c1ccc(NC(=O)CSc2nnc(-c3ccc(O)cc3)n2Cc2ccco2)cc1
1.5 µM | COc1ccc(CNc2nn3c(-c4cncc(OC)c4)cnc3s2)cc1
2.41 µM | O=C1NC(=O)/C(=C/c2ccc(OC(=O)c3ccc(Cl)cc3Cl)cc2)N1
> 50 µM (inactive) | CCCN1CCN(C(=O)c2cc(NC(=O)C3CCC3)cc3nc(C)ccc23)CC1

IC50 | SMILES
> 50 µM (inactive) | Cc1cc(O)c(=O)cc2c1C[C@H]1CC(C)(C)/C=C/C[C@@]3(C)Oc4cc(=O)c(O)cc(C)c4C[C@@H]3C[C@H](O)[C@]1(C)O2
1.84 µM | CCCn1c(=O)c(-c2ccc(C(=O)NCc3ccc(OC)cc3)cc2)nc2cccnc21
> 50 µM (inactive) | COc1ccc(C(=O)Nc2ccc3c(c2)Sc2ncccc2C(=O)N3C)cn1
23.8 µM | Cc1ccc(Cn2cc(-c3noc(-c4ccc[nH]4)n3)nn2)cc1
2.58 µM | CCn1cc2c(n1)c(=O)n(Cc1ccccc1)c(=O)n2CC(=O)Nc1ccc(OC)cc1
37.1 µM | COc1ccc(NC(=O)CC(=O)c2ccc([N+](=O)[O-])cc2)cc1S(=O)(=O)Nc1ccc(Cl)cc1
> 50 µM (inactive) | Cc1cnc2nc3c(cc2c1)CN(CCc1ccc(Cl)cc1)CC3
> 50 µM (inactive) | Cc1ccc(C)c(-n2c(N)c(C(=O)NCCc3ccccc3)c3nc4ccccc4nc32)c1
2.44 µM | O=C(Nc1nc2c(ccc3ccccc32)s1)c1cccc(Br)c1
> 50 µM (inactive) | CC(=O)N1CCOc2cc(S(=O)(=O)N3CCCC3c3cc(C)no3)ccc21 (configuration not stated)
17.9 µM | CCOC(=O)c1c(C)nc2n(Cc3ccccc3)c3ccccc3n12
> 50 µM (inactive) | COc1cccc(-c2nc(C(N)=O)c3[nH]c(=O)n(-c4cccc(Cl)c4)c3n2)c1OC
> 50 µM (inactive) | Cc1ccc(N=Cc2sc(O)c3ccccc23)c(C)c1
2.08 µM | CN(C)C(=O)CSc1nnc(-c2cccc(Cl)c2)n1-c1ccc(Cl)c(C(F)(F)F)c1
> 50 µM (inactive) | N#Cc1ccc(COC(=O)c2ccc3ccccc3n2)cc1
0.148 µM | Cc1c(OCC(=O)Nc2nc3ccccc3[nH]2)ccc2c3c(c(=O)oc12)CCC3
> 50 µM (inactive) | Cc1cc(C(=O)Nc2cc(C)n(Cc3ccc(Cl)cc3)n2)no1
> 50 µM (inactive) | Cc1ccc(NC(=O)c2nnn(-c3ccccc3Br)c2C)cc1C
8.5 µM | Cc1cc(C)c2cc(C(=O)NC3CCN(Cc4ccccc4)CC3)[nH]c2c1
> 50 µM (inactive) | O=C(Nc1ccc2nccnc2c1)c1cccc(C(F)(F)F)c1
5.14 µM | Cc1ccc(Cn2c(=O)n(CCC(=O)NCCc3ccccc3)c(=O)c3ccccc32)cc1
> 50 µM (inactive) | Cc1c(C(=O)NCc2cccc(Br)c2)oc2c1-c1[nH]ncc1CC2
> 50 µM (inactive) | CCc1nc(N2CCCC2=O)sc1C(=O)Nc1cccc(C(C)=O)c1
> 50 µM (inactive) | CC(=O)c1oc2nc3c(c(-c4ccc(Cl)cc4)c2c1N)CCc1ccccc1-3

SMILES | IC50
CC1(C)CC(n2[nH]c(=O)c3c2NC(=O)CSC3c2ccc(OCc3ccccc3)cc2)CCO1 (configuration not stated) | 12 µM
